From PubChem BioAssay (NCI)
Several values for one entry are separate records, joined by “and”; a condition that tells them apart may be missing. Identical values can stand only once.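 These data come from cells grown in 96-well plates and exposed to compound for 48 hours at five concentrations. GI50 marks 50% less growth. Definition used: TGI = concentration required for complete inhibition of growth.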

What was measured:
Assay in all cases: NCI-60 cell line screen, 48 h
MDA-MB-468 breast = tested on: MDA-MB-468 breast
786-0 renal = tested on: 786-0 renal
A498 renal = tested on: A498 renal
A549 NSCLC = tested on: A549 NSCLC
ACHN renal = tested on: ACHN renal
CAKI-1 renal = tested on: CAKI-1 renal
CCRF-CEM leukemia = tested on: CCRF-CEM leukemia
COLO 205 colon = tested on: COLO 205 colon
DU-145 prostate = tested on: DU-145 prostate
HCC-2998 colon = tested on: HCC-2998 colon
HCT-116 colon = tested on: HCT-116 colon
HCT-15 colon = tested on: HCT-15 colon
HL-60(TB) leukemia = tested on: HL-60(TB) leukemia
HOP-92 NSCLC = tested on: HOP-92 NSCLC
HS 578T breast = tested on: HS 578T breast
HT29 colon = tested on: HT29 colon
IGROV1 ovarian = tested on: IGROV1 ovarian
K-562 leukemia = tested on: K-562 leukemia
LOX IMVI melanoma = tested on: LOX IMVI melanoma
M14 melanoma = tested on: M14 melanoma
MALME-3M melanoma = tested on: MALME-3M melanoma
MDA-MB-231 breast = tested on: MDA-MB-231 breast
MDA-MB-435 = tested on: MDA-MB-435
MOLT-4 leukemia = tested on: MOLT-4 leukemia
NCI-H226 lung = tested on: NCI-H226 lung
NCI-H522 lung = tested on: NCI-H522 lung
OVCAR-4 ovarian = tested on: OVCAR-4 ovarian
OVCAR-5 ovarian = tested on: OVCAR-5 ovarian
PC-3 prostate = tested on: PC-3 prostate
RPMI-8226 leukemia = tested on: RPMI-8226 leukemia
SF-268 CNS = tested on: SF-268 CNS
SF-539 CNS = tested on: SF-539 CNS
SK-MEL-2 melanoma = tested on: SK-MEL-2 melanoma
SK-MEL-28 melanoma = tested on: SK-MEL-28 melanoma
SK-MEL-5 melanoma = tested on: SK-MEL-5 melanoma
SK-OV-3 ovarian = tested on: SK-OV-3 ovarian
SN12C renal = tested on: SN12C renal
SNB-19 CNS = tested on: SNB-19 CNS
SNB-75 CNS = tested on: SNB-75 CNS
SR leukemia = tested on: SR leukemia
TK-10 renal = tested on: TK-10 renal
U251 CNS = tested on: U251 CNS
UACC-257 melanoma = tested on: UACC-257 melanoma
UACC-62 melanoma = tested on: UACC-62 melanoma
UO-31 renal = tested on: UO-31 renal

CO[C@H](C(=O)[C@@H](O)[C@@H](C)O)[C@@H]1Cc2cc3cc(O[C@H]4C[C@@H](O[C@H]5C[C@@H](O)[C@H](O)C(C)O5)[C@H](O)C(C)O4)c(C)c(O)c3c(O)c2C(=O)[C@H]1O[C@H]1C[C@@H](O[C@H]2C[C@@H](O[C@H]3C[C@@H](OC)[C@H](O)C(C)O3)[C@@H](O)C(C)O2)C(O)(O)C(C)O1 (some centres not stated)
GI50 (MDA-MB-468 breast): 138 nM
TGI (MDA-MB-468 breast): 1170 nM

C=C1C(=O)O[C@H]2[C@H]1CC/C(CNC(=O)/C=C/c1ccc(Br)cc1)=C\CC[C@@]1(C)O[C@@H]21
GI50 (MDA-MB-468 breast): 391 nM
TGI (MDA-MB-468 breast): 1670 nM

CNC(=O)c1cc(COc2nnc(Nc3ccc(Cl)cc3)c3ccoc23)ccn1
GI50 (MDA-MB-468 breast): 6940 nM and > 10000 nM
TGI (MDA-MB-468 breast): 30900 nM and > 10000 nM

COc1cc(C(=O)OCCCCCCCCCCC[P+](c2ccccc2)(c2ccccc2)c2ccccc2)ccc1O
GI50 (MDA-MB-468 breast): 284 nM
TGI (MDA-MB-468 breast): 1090 nM

COc1cc(/C(Cl)=C/C=C/C(=O)c2c(C)[n+]([O-])c3ccc(Cl)cc3[n+]2[O-])cc(OC)c1OC
GI50 (MDA-MB-468 breast): 1870 nM
TGI (MDA-MB-468 breast): 9290 nM

C[n+]1c(/C=C\C=C\N2CCCCC2)sc2ccccc21
GI50 (MDA-MB-468 breast): 238 nM
TGI (MDA-MB-468 breast): 3800 nM

COc1ccc(-c2[nH]ncc2-c2cc3c(c(OC)c2)OCC(=O)N3)cc1
GI50 (MDA-MB-468 breast): 354 nM
TGI (MDA-MB-468 breast): 28400 nM

Cn1ccnc1C(=O)/C=C/c1ccc(NC(=O)c2ccc(F)cc2)cc1
GI50 (MDA-MB-468 breast): 2870 nM
TGI (MDA-MB-468 breast): 15900 nM

Cc1[nH]ncc1-c1cc2nc(C3CC4CCN3CC4)[nH]c(=O)c2s1 (configuration not stated)
GI50 (MDA-MB-468 breast): 9050 nM
TGI (MDA-MB-468 breast): 32200 nM

Cc1nc2ccc(CN(C)c3ccc(C(=O)N[C@@H](CCC(=O)O)C(=O)O)s3)cc2c(=O)[nH]1
GI50 (MDA-MB-468 breast): 57.8 nM
TGI (MDA-MB-468 breast): > 100000 nM

CC(C)[C@](O)(c1ccc2cc(OC(F)F)c(OC(F)F)cc2c1)c1cn[nH]n1
GI50 (MDA-MB-468 breast): 20900 nM and 14200 nM
TGI (MDA-MB-468 breast): 57600 nM and 41300 nM

Cn1cc(-c2cc3nc(-c4c[nH]c5ccc(Br)cc45)cc(N)n3n2)c2ccccc21
GI50 (786-0 renal): 1600 nM
TGI (786-0 renal): 3270 nM
GI50 (A498 renal): 1670 nM
TGI (A498 renal): 3340 nM
GI50 (A549 NSCLC): 1530 nM
TGI (A549 NSCLC): 3450 nM
GI50 (ACHN renal): 1690 nM
TGI (ACHN renal): 3130 nM
GI50 (CAKI-1 renal): 1500 nM
TGI (CAKI-1 renal): 3060 nM
GI50 (CCRF-CEM leukemia): 2670 nM
TGI (CCRF-CEM leukemia): 9340 nM
GI50 (COLO 205 colon): 1890 nM
TGI (COLO 205 colon): 3510 nM
GI50 (DU-145 prostate): 1920 nM
TGI (DU-145 prostate): 3750 nM
GI50 (HCC-2998 colon): 1790 nM
TGI (HCC-2998 colon): 3260 nM
GI50 (HCT-116 colon): 3000 nM
TGI (HCT-116 colon): > 100000 nM
GI50 (HCT-15 colon): 1430 nM
TGI (HCT-15 colon): 2790 nM
GI50 (HL-60(TB) leukemia): 1840 nM
TGI (HL-60(TB) leukemia): 4340 nM
GI50 (HOP-92 NSCLC): 1510 nM
TGI (HOP-92 NSCLC): 3080 nM
GI50 (HS 578T breast): 1980 nM
TGI (HS 578T breast): 4870 nM
GI50 (HT29 colon): 1660 nM
TGI (HT29 colon): 3080 nM
GI50 (IGROV1 ovarian): 1500 nM
TGI (IGROV1 ovarian): 2980 nM
GI50 (K-562 leukemia): 2290 nM
TGI (K-562 leukemia): 5940 nM
GI50 (LOX IMVI melanoma): 1680 nM
TGI (LOX IMVI melanoma): 3040 nM
GI50 (M14 melanoma): 2290 nM
TGI (M14 melanoma): 5780 nM
GI50 (MALME-3M melanoma): 1660 nM
TGI (MALME-3M melanoma): 3010 nM
GI50 (MDA-MB-231 breast): 1770 nM
TGI (MDA-MB-231 breast): 3170 nM
GI50 (MDA-MB-435): 1710 nM
TGI (MDA-MB-435): 3090 nM
GI50 (MDA-MB-468 breast): 1490 nM
TGI (MDA-MB-468 breast): 3010 nM
GI50 (MOLT-4 leukemia): 1670 nM
TGI (MOLT-4 leukemia): 5150 nM
GI50 (NCI-H226 lung): 1960 nM
TGI (NCI-H226 lung): 5070 nM
GI50 (NCI-H522 lung): 1500 nM
TGI (NCI-H522 lung): 3080 nM
GI50 (OVCAR-4 ovarian): 1710 nM
TGI (OVCAR-4 ovarian): 3490 nM
GI50 (OVCAR-5 ovarian): 1620 nM
TGI (OVCAR-5 ovarian): 3260 nM
GI50 (PC-3 prostate): 1640 nM
TGI (PC-3 prostate): 3240 nM
GI50 (RPMI-8226 leukemia): 2730 nM
TGI (RPMI-8226 leukemia): 7930 nM
GI50 (SF-268 CNS): 1890 nM
TGI (SF-268 CNS): 4430 nM
GI50 (SF-539 CNS): 1660 nM
TGI (SF-539 CNS): 3070 nM
GI50 (SK-MEL-2 melanoma): 1740 nM
TGI (SK-MEL-2 melanoma): 3480 nM
GI50 (SK-MEL-28 melanoma): 1780 nM
TGI (SK-MEL-28 melanoma): 3220 nM
GI50 (SK-MEL-5 melanoma): 1710 nM
TGI (SK-MEL-5 melanoma): 3150 nM
GI50 (SK-OV-3 ovarian): 1980 nM
TGI (SK-OV-3 ovarian): 4030 nM
GI50 (SN12C renal): 1650 nM
TGI (SN12C renal): 3050 nM
GI50 (SNB-19 CNS): 1670 nM
TGI (SNB-19 CNS): 3090 nM
GI50 (SNB-75 CNS): 1320 nM
TGI (SNB-75 CNS): 3110 nM
GI50 (SR leukemia): 1650 nM
TGI (SR leukemia): 5280 nM
GI50 (TK-10 renal): 1430 nM
TGI (TK-10 renal): 2790 nM
GI50 (U251 CNS): 1720 nM
TGI (U251 CNS): 3270 nM
GI50 (UACC-257 melanoma): 1720 nM
TGI (UACC-257 melanoma): 3260 nM
GI50 (UACC-62 melanoma): 1540 nM
TGI (UACC-62 melanoma): 2920 nM
GI50 (UO-31 renal): 1430 nM
TGI (UO-31 renal): 2730 nM
